One series has as its system HIV. The settings on record: cited from earlier work.
A short description of series [1]: Cytotoxicity, MTT assay in CEM-T4 cells. The conditions noted are these: human. As to the method:
(§1) Evaluation of anti-HIV activity consisted of measurements of p24 antigen using the Genscreen ULTRA HIV Ag-Ab Kit. […] We included betulin and betulinic acid in our studies in order to broaden the structure-activity study. BVM, the first HIV-1 maturation inhibitor, was applied as a reference compound.
For the determination of compounds cytotoxicity, CEM-T4 cells were obtained from the NIH AIDS Reagent Program (NIH, US) and were cultured in RPMI supplemented with 10% FCS (Biochrom) and antibiotics at 37 °C in 5% CO2 on 96-well culture plates. […] Cultures in a neat medium (RPMI, 10% FCS) were used as a control. Viability of cells was determined after 7 days using the MTT assay in which 10 μL of MTT solution (5 mg/mL) was added to each culture plate well, and cultures were incubated for 3 h at a temperature of 37 °C. After the centrifugation, the supernatant was removed, and DMSO was added for lysis of the cells and to dissolve crystals of formazan. Color intensity was measured with a plate reader at 560 nm. Cell viability was determined by the Equation (1):Viability (%) = (OD of samples enriched in test drugs/OD of control samples) × 100(1) where OD means optical density.
Based on the calculations, a graph was created regarding the relationship between the concentration of the compound and the viability from which CC50 was established.

Series [2] relates to HIV-1. The experiment in a line: microbe, parasite or virus in culture. The settings on record: for TI (selectivity index): HIV-infected CEM-T4 cell line. As to the method:
as §1
CEM-T4 cells were preincubated (culture plates with 96 flat bottom wells) for 24 h under standard conditions (37 °C, 5% CO2) and in a standard medium (RPMI, FCS 10%) enriched with tested compounds in the concentration range from 0.02 µM to 10 µM. In each well, 20,000 cells were suspended in the solution of a tested compound (200 μL). For each concentration, cultures were run in triplicate. A wild-type HIV-1 was isolated from the HIV-positive patient in the Laboratory of Virology of the National Medicines Institute (Warsaw, Poland) and was used as a reference. A culture of CEM-T4 lines in a standard neat medium (RPMU, FCS 10%) was used to produce viruses. After 24 h of incubation in a medium enriched with a tested compound, cells were inoculated with a known amount of HIV, and after 7 days, HIV replication was evaluated through the measurement of secreted viral protein p24 carried out with the enzyme-linked immunosorbent assay (ELISA) technique. For each tested compound and for each concentration, the measurements of p24 antigen were done in triplicate using the Genscreen ULTRA HIV Ag-Ab Kit (Biorad, Warszawa, Poland) and following manufacturer’s instructions. The absorbance of the sample was determined as an OD measured at 650 nm. HIV replication capacity was calculated using the Equation (2):Virus replication (%) = (OD of drug-enriched samples/OD of control samples) × 100(2)
The results were presented by a graph showing the ratio of HIV replication to the concentration of the tested preparation.

The test system of series [3] is HIV-1. On the set-up: method as in PMID 8176401. The settings on record: inhibiting HIV-1 replication; cited from earlier work.
Setting [4] is: Human immunodeficiency virus 1, CEM-T4, 168 h, wild-type HIV-1 in CEM-T4 cells, p24 antigen, 7 days, 50% inhibition of replication.
Where [5] appears, read: wild-type HIV-1 in CEM-T4 cells, p24 antigen, 7 days, 50% inhibition of replication.

Where two headings read alike, the source gives them in different places.

On to 3,28-di(dimethylglutaryl)betulin, for which, in the series on HIV, the half-maximal effective concentration (EC50) was 0.00066 µM.
Regarding `C=C(C)C1CCC2(C(=O)O)CCC3(C)C(CCC4C5(C)CCC(OC(=O)CC(C)(C)CC(=O)O)C(C)(C)C5CCC43C)C12` (stereo not shown) [3′,3′-dimethylglutarylbetulinic acid], the EC50 with HIV (literature reports) is 0.0023 µM.
Take `C=C(COP(=O)(OCC)OCC)C1CCC2(C(=O)O)CCC3(C)C(CCC4C5(C)CCC(O)C(C)(C)C5CCC43C)C12` (stereo not shown) [Compound 9]: the CC50 at 7 days in series [1] is 18 ± 1.79 µM. The IC50 in the series on HIV-1 [2] (setting [4]) was over 10 µM.
For the molecule `CCOP(=O)(C=C(C)C1CCC2(C(=O)O)CCC3(C)C(CCC4C5(C)CCC(O)C(C)(C)C5CCC43C)C12)OCC` (stereo not shown) [Compound 10, 29-Diethoxyphosphorylbetulinic acid], the CC50 at 7 days in series [1] came out at 80 ± 1.3 µM. In the series with HIV-1 [2], the “TI (selectivity index)” value was under 8. In addition, the IC50 in the series with HIV-1 [2] (setting [4]) is over 10 µM.
Regarding `C=C(CP(=O)(OCC)OCC)C1CCC2(C(=O)O)CCC3(C)C(CCC4C5(C)CCC(O)C(C)(C)C5CCC43C)C12` (stereo not shown) [Compound 11, 30-Diethoxyphosphorylbetulinic Acid], the CC50 at 7 days in series [1] was over 42 µM. Moreover, in the series with HIV-1 [2] (setting [4]), the IC50 is over 10 µM.
For the molecule `C=C(COP(=O)(OCC)OCC)C1CCC2(C(=O)O)CCC3(C)C(CCC4C5(C)CCC(OC(=O)CC(C)(C)C(=O)O)C(C)(C)C5CCC43C)C12` (stereo not shown) [Compound 12a], the CC50 at 7 days in series [1] was found to be 52 ± 1.07 µM. In addition, in the series with HIV-1 [2], the “TI (selectivity index)” value worked out at 52. Further, the IC50 with HIV-1 [2] (setting [4]) was under 2 µM; in the series with HIV-1 [2] (setting [5]) it was 1 ± 0.33 µM.
Regarding `C=C(COP(=O)(OCC)OCC)C1CCC2(C(=O)O)CCC3(C)C(CCC4C5(C)CCC(OC(=O)CC(C)(C)CC(=O)O)C(C)(C)C5CCC43C)C12` (stereo not shown) [Compound 12b], the CC50 at 7 days in series [1] was determined as 28 ± 1.64 µM. Further, the “TI (selectivity index)” value with HIV-1 [2] came out at 47. In the series on HIV-1 [2] (setting [4]), this molecule registered an IC50 of 0.6 ± 0.04 µM.
Regarding `C=C(COP(=O)(OCC)OCC)C1CCC2(C(=O)O)CCC3(C)C(CCC4C5(C)CCC(OC(=O)CCC(C)(C)C(=O)O)C(C)(C)C5CCC43C)C12` (stereo not shown) [Compound 12c], the CC50 at 7 days in series [1] turned out to be 64 ± 1.84 µM. Besides, the “TI (selectivity index)” value in the series on HIV-1 [2] was found to be 16. The molecule further registered an IC50 in the series on HIV-1 [2] (setting [4]) of 4 ± 1.65 µM.
In series [1], `CCOP(=O)(C=C(C)C1CCC2(C(=O)O)CCC3(C)C(CCC4C5(C)CCC(OC(=O)CC(C)(C)C(=O)O)C(C)(C)C5CCC43C)C12)OCC` (stereo not shown) [Compound 13a] displayed a CC50 at 7 days of over 68 µM. The “TI (selectivity index)” value in the series on HIV-1 [2] is reported as over 35. The IC50 in the series on HIV-1 [2] (setting [4]) is under 2 µM; in the series on HIV-1 [2] (setting [5]) it was 2 ± 0.72 µM.
`CCOP(=O)(C=C(C)C1CCC2(C(=O)O)CCC3(C)C(CCC4C5(C)CCC(OC(=O)CC(C)(C)CC(=O)O)C(C)(C)C5CCC43C)C12)OCC` (stereo not shown) [Compound 13b] yielded a CC50 at 7 days in series [1] of over 68 µM. Moreover, the “TI (selectivity index)” value with HIV-1 [2] is given as over 8. In addition, half-maximal inhibition with HIV-1 [2] (setting [4]) (IC50) required 8.8 ± 1.7 µM.
In series [1], `CCOP(=O)(C=C(C)C1CCC2(C(=O)O)CCC3(C)C(CCC4C5(C)CCC(OC(=O)CCC(C)(C)C(=O)O)C(C)(C)C5CCC43C)C12)OCC` (stereo not shown) [Compound 13c] came in with a CC50 at 7 days of over 68 µM. Besides, the IC50 in the series with HIV-1 [2] (setting [4]) was over 10 µM.
In the case of `C=C(CP(=O)(OCC)OCC)C1CCC2(C(=O)O)CCC3(C)C(CCC4C5(C)CCC(OC(=O)CC(C)(C)C(=O)O)C(C)(C)C5CCC43C)C12` (stereo not shown) [Compound 14a], in series [1], the CC50 at 7 days is over 68 µM.
Molecule `C=C(CP(=O)(OCC)OCC)C1CCC2(C(=O)O)CCC3(C)C(CCC4C5(C)CCC(OC(=O)CC(C)(C)CC(=O)O)C(C)(C)C5CCC43C)C12` (stereo not shown) [Compound 14b] had a CC50 at 7 days in series [1] of over 68 µM. In addition, the “TI (selectivity index)” value in the series with HIV-1 [2] was over 75. In the series with HIV-1 [2] (setting [4]), this molecule yielded an IC50 of 0.9 ± 0.12 µM.
The matching figures for `C=C(CP(=O)(OCC)OCC)C1CCC2(C(=O)O)CCC3(C)C(CCC4C5(C)CCC(OC(=O)CCC(C)(C)C(=O)O)C(C)(C)C5CCC43C)C12` (stereo not shown) [Compound 14c]: over 68 µM, over 68 and 1 ± 0.17 µM.
Turning to `C=C(C)[C@@H]1CC[C@]2(CO)CC[C@]3(C)[C@H](CC[C@@H]4[C@@]5(C)CC[C@H](O)C(C)(C)[C@@H]5CC[C@]43C)[C@@H]12` [betulin, lup-20(29)-ene-3β,28-diol, reference compound], in series [1], the CC50 at 7 days was 46 ± 3.01 µM. Further, the IC50 in the series on HIV-1 [2] (setting [4]) is over 10 µM.
Regarding `C=C(C)[C@@H]1CC[C@]2(C(=O)O)CC[C@]3(C)[C@H](CC[C@@H]4[C@@]5(C)CC[C@H](O)C(C)(C)[C@@H]5CC[C@]43C)[C@@H]12` [betulinic acid, 3β-hydroxy-20(29)-lupaene-28-oic acid, reference compound], in series [1], half-maximal cytotoxicity (CC50 at 7 days) was put at 5 ± 2.44 µM. The same molecule returned a concentration for half-maximal inhibition (IC50) in the series with HIV-1 [2] (setting [4]) of over 10 µM. For the same molecule, the EC50 in the series on HIV-1 [3] is 1.6 µM.
In the case of `C=C(C)[C@@H]1CC[C@]2(C(=O)O)CC[C@]3(C)[C@H](CC[C@@H]4[C@@]5(C)CC[C@H](OC(=O)CC(C)(C)C(=O)O)C(C)(C)[C@@H]5CC[C@]43C)[C@@H]12` [bevirimat, 3-O-(3′,3′-dimethylsuccinyl) betulinic acid, reference compound], the CC50 at 7 days in series [1] (CEM-T4 cells) was 29 ± 2.43 µM. Moreover, in the series on HIV-1 [2] (Human immunodeficiency virus 1, CEM-T4, 168 h), the IC50 stood at 0.03 ± 0.009 µM. In addition, in the series on HIV (literature reports), the EC50 was 0.00035 µM.

(Values after publication PMC6829466 (International Journal of Molecular Sciences, 2019).)
